Measurements from patent publication US8361996B2, “Imidazolyl substituted steroidal and indan-1-one derivatives” (Council of Scientific and Industrial Research, priority 2005, dated 2013).
Like-named read-outs stand apart in the source and are kept apart here.

Assays:
[1] = target: T1, aromatase (CYP19) (Homo sapiens, UniProt P11511); assay: Inhibition of aromatase, human placental microsomes, 3H2O release; type: biochemical
T1 construct: The enzyme was obtained from the microsomal fraction of freshly delivered human term placental tissue; from tissue; host or cells: human term placenta, microsomal fraction
T1 sequence (P11511 1-503): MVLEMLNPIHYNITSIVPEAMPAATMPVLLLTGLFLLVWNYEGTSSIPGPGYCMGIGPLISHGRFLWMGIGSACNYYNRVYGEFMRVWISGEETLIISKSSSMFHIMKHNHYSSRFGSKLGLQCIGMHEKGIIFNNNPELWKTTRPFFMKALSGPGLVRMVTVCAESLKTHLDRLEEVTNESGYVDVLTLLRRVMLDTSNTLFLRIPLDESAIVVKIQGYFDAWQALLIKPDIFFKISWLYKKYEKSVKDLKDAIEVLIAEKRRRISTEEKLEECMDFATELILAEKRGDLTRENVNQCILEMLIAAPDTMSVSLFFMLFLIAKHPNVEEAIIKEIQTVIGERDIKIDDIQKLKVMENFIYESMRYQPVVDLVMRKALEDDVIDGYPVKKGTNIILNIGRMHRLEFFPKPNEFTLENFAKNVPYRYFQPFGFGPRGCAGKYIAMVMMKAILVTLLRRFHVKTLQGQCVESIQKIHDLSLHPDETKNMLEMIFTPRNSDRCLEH

[2] = Substrate: 1β 3H-androstenedione/androstenedione 500 nm
[3] = human placental microsomes and [1β,2β-3H] testosterone

With `CC(=O)O[C@H]1CC[C@@]2(C)C(=CC[C@H]3[C@@H]4C[C@H](n5ccnc5)[C@H](OC(C)=O)[C@@]4(C)CC[C@@H]32)C1` the melting point was 197 to 199 °C.
`O=C1C(=Cc2cccc(OCCn3ccnc3)c2)Cc2ccccc21` [Compound 10, 2-[3-(2-Imidazol-1-ylethoxy)-benzylidene]indan-1-one] gave a melting point of 218 to 220 °C.
In the case of `COc1cc(C=C2C[C@H]3[C@@H]4CC=C5C[C@@H](OC(C)=O)CC[C@]5(C)[C@H]4CC[C@]3(C)C2=O)ccc1OCCCn1ccnc1`, the melting point is reported as 109 to 111 °C.
With `C[C@]12CC[C@H]3[C@@H](/C(=N\OCCCn4ccnc4)C=C4C[C@@H](O)CC[C@@]43C)[C@@H]1CC[C@@H]2O` [Compound 25, 7-[O-{3-(Imidazol-1-yl)propyl}oximino]-5-androstene-3β,17β-diol] the IC50 [1] was 12 µM, the “Inhibition on CYP19a RP: Relative potency; relative to aminoglutethimide (=1)” value (“Inhibition on CYP19a RP: Relative potency … (=1)” below) [1, 2] was “IC50: 12 μM RP: 2.5” and the “aromatase inhibitory activity (in words)” value [1, 3] was “significant aromatase inhibitory activity”. It also gave a melting point of 205 to 206 °C.
For `O=C1/C(=C/c2cccc(OCCCn3ccnc3)c2)Cc2ccccc21` [Compound 2, 2-[3-(3-Imidazol-1-yl-propoxy)-benzylidene]-indan-1-one], the “Inhibition on CYP19a RP: Relative potency … (=1)” value [1, 2] was 42.5, the “aromatase inhibitory activity (in words)” value [1, 3] was “good aromatase inhibitory activity” and the melting point was 48 to 50 °C.
With `CC(=O)O[C@H]1CC[C@@]2(C)C(=C/C(=N\OCCCn3ccnc3)[C@H]3[C@@H]4CC[C@H](OC(C)=O)[C@@]4(C)CC[C@@H]32)C1` [Compound 24, 7-[O-{3-(imidazol-1-yl)propyl}oximino]-5-androstene-3β,17β-diol diacetate] the IC50 [1] was 3.1 µM, the “Inhibition on CYP19a RP: Relative potency … (=1)” value [1, 2] was “IC50: 3.1 μM RP: 9.6” and the “aromatase inhibitory activity (in words)” value [1, 3] was “significant aromatase inhibitory activity”. The melting point was 180 to 182 °C.
With `C[C@]12CC[C@H]3[C@@H](CC=C4C[C@@H](O)CC[C@@]43C)[C@@H]1C[C@H](n1ccnc1)[C@@H]2O` the melting point was 285 to 287 °C.
For `C[C@]12CC[C@H](O)CC1=CC[C@@H]1[C@@H]2CC[C@]2(C)C(=O)[C@@H](n3ccnc3)C[C@@H]12` [Compound 27, 16β-(Imidazol-1-yl)-17-oxo-5-androsten-3β-ol], the “Inhibition on CYP19a RP: Relative potency … (=1)” value [1, 2] was “IC50: 3.3 Mm RP: 9.0”, the “aromatase inhibitory activity (in words)” value [1, 3] was “significant aromatase inhibitory activity” and the melting point was 249 to 251 °C.
In the case of `C[C@]12CCC(=O)C=C1CCC1C2CC[C@]2(C)C(=O)/C(=C/c3cccc(OCCCn4ccnc4)c3)CC12` (stereo partly drawn) [Compound 22, 16-[3-{3-(imidazol-1-yl)propoxy}benzylidene]-4-androstene-3,17-dione], the “aromatase inhibitory activity (in words)” value [1, 3] is reported as “significant aromatase inhibitory activity”.
In the case of `CC(=O)O[C@H]1CC[C@@]2(C)C(=CC[C@H]3[C@@H]4CC(=Cc5cccc(OCCCn6ccnc6)c5)[C@H](OC(C)=O)[C@@]4(C)CC[C@@H]32)C1`, the melting point is reported as 97 to 99 °C.
With `C[C@]12CC[C@H](O)CC1=CC[C@@H]1[C@@H]2CC[C@]2(C)C(=O)C(=Cc3cccc(OCCCn4ccnc4)c3)C[C@@H]12` the melting point was 211 to 212 °C.
In the case of `C[C@]12CC[C@H]3[C@@H](CC=C4C[C@@H](O)CC[C@@]43C)[C@@H]1C/C(=C\c1cccc(OCCCn3ccnc3)c1)[C@@H]2O` [Compound 20, 16-[3-{3-(imidazol-1-yl)propoxy}benzylidene]-5-androstene-3β,17β-diol], the “Inhibition on CYP19a RP: Relative potency … (=1)” value [1] is reported as “IC50: 9.1 μM RP: 3.3”, the IC50 ([1]; Substrate: 1β 3H-androstenedione/androstenedione 500 nm, read-out: Inhibition on CYP19a IC50) is reported as 9.1 µM and the “aromatase inhibitory activity (in words)” value [1, 3] is reported as “significant aromatase inhibitory activity”. For the same molecule, the melting point was 133 to 135 °C.
With `COc1ccc(/C=C2\Cc3ccccc3C2=O)cc1OCCCn1ccnc1` [Compound 6, 2-[3-(3-Imidazol-1-ylpropoxy)-4-methoxybenzylidene)indan-1-one] the “Inhibition on CYP19a RP: Relative potency … (=1)” value [1, 2] was 22.5, the “aromatase inhibitory activity (in words)” value [1, 3] was “good aromatase inhibitory activity” and the melting point was 176 to 180 °C.
With `COc1cc(/C=C2\Cc3ccccc3C2=O)ccc1OCCCn1ccnc1` [Compound 8, 2-[4-(3-Imidazol-1-ylpropoxy)-3-methoxybenzylidene)indan-1-one] the “Inhibition on CYP19a RP: Relative potency … (=1)” value [1, 2] was 54.1, the “aromatase inhibitory activity (in words)” value [1, 3] was “good aromatase inhibitory activity” and the IC50 ([1]; human placental microsomes and [1β,2β-3H] testosterone, read-out: IC50 for the aromatase inhibitory activity) was 0.55 µM. The melting point was 123 to 127 °C.
With `O=C1/C(=C/c2ccccc2OCCCn2ccnc2)Cc2ccccc21` [Compound 4, 2-[2-(3-Imidazol-1-yl-propoxy)-benzylidene]-indan-1-one] the “Inhibition on CYP19a RP: Relative potency … (=1)” value [1, 2] was 26.6, the “aromatase inhibitory activity (in words)” value [1, 3] was “good aromatase inhibitory activity” and the melting point was 76 to 78 °C.
Work on `COc1cc(C=C2C[C@H]3[C@@H]4CC=C5C[C@@H](OC(C)=O)CC[C@]5(C)[C@H]4CC[C@]3(C)[C@H]2OC(C)=O)ccc1OCCCn1ccnc1` yielded a melting point of 163 to 168 °C.
With `COc1cc(C=C2C[C@H]3[C@@H]4CC=C5C[C@@H](O)CC[C@]5(C)[C@H]4CC[C@]3(C)C2=O)ccc1OCCCn1ccnc1` the melting point was 199 to 201 °C.
For `COc1cc(/C=C2\C[C@H]3[C@@H]4CC=C5C[C@@H](O)CC[C@]5(C)[C@H]4CC[C@]3(C)[C@H]2O)ccc1OCCCn1ccnc1` [Compound 14, 16-[4-{3-(Imidazol-1-yl)propoxy}-3-methoxybenzylidene]-5-androstene-3β,17β-diol], the “Inhibition on CYP19a RP: Relative potency … (=1)” value [1, 2] was 12.4 and the “aromatase inhibitory activity (in words)” value [1, 3] was “significant aromatase inhibitory activity”.
